Each block holds one compound with its values, some of them ahead of it.
Key:
[1] = test system: HCT-116; test: Antiproliferative activity against human HCT-116 cells measured upto 72 hrs by CCK-8 method; format: functional
[2] = test system: SW480; test: Antiproliferative activity against human SW480 cells measured upto 72 hrs by CCK-8 method; format: functional
[3] = test system: LoVo; test: Antiproliferative activity against human LoVo cells measured upto 72 hrs by CCK-8 method; format: functional
[4] = test system: HCT-116; test: Cytotoxicity against human HCT-116 cells assessed as inhibition of cell growth incubated for 24 hrs by MTT assay; format: functional
[5] = test system: HCT-116; test: Antiproliferative activity against human HCT-116 cells expressing wild type p53 measured after 48 hrs by MTT assay; format: functional, cell-based; conditions: HCT-116, 48 h
[6] = test system: HCT-116; test: Antiproliferative activity against human HCT-116 cells; format: functional, cell-based
[7] = test system: SW480; test: Antiproliferative activity against human SW480 cells assessed as inhibition of cell growth measured after 24 hrs by CellTiter 96 Aqueous One Solution Cell Proliferation Assay; format: functional, cell-based; conditions: SW480, 24 h
[8] = test system: HCT-116; test: Antiproliferative activity against human HCT-116 cells assessed as inhibition of cell growth measured after 24 hrs by CellTiter 96 Aqueous One Solution Cell Proliferation Assay; format: functional, cell-based; conditions: HCT-116, 24 h
[9] = test system: SW-620; test: Antiproliferative activity against human SW620 cells measured upto 60 hrs by MTS assay; format: functional
[10] = test system: HCT-116; test: Antiproliferative activity against human HCT-116 cells assessed as inhibition of cell growth measured after 48 hrs by CCK-8 method; format: functional, cell-based; conditions: HCT-116, 48 h
[11] = test system: SW-620; test: Antiproliferative activity against human SW620 cells assessed as inhibition of cell growth measured after 48 hrs by CCK-8 method; format: functional, cell-based; conditions: SW-620, 48 h
[12] = test system: SW480; test: Antiproliferative activity against human SW480 cells assessed as inhibition of cell growth measured after 48 hrs by CCK-8 method; format: functional, cell-based; conditions: SW480, 48 h
[13] = test system: HT-29; test: Antiproliferative activity against human HT-29 cells assessed as inhibition of cell growth measured after 48 hrs by CCK-8 method; format: functional, cell-based; conditions: HT-29, 48 h
[14] = test system: DLD-1; test: Antiproliferative activity against human DLD-1 cells assessed as inhibition of cell growth measured after 48 hrs by CCK-8 method; format: functional, cell-based; conditions: DLD-1, 48 h
[15] = test system: SW480; test: Antiproliferative activity against human SW480 cells; format: functional, cell-based
[16] = test system: CT26; test: Antiproliferative activity against mouse CT26 cells assessed as inhibition of cell viability; format: functional, cell-based
[17] = test system: HCT-116; test: Antiproliferative activity against human HCT-116 cells assessed as inhibition of cell viability; format: functional, cell-based
[18] = test system: HCT-116; test: Cytotoxicity against human HCT-116 cells; format: functional, cell-based; conditions: Homo sapiens, HCT-116
[19] = test system: SW-620; test: Cytotoxicity against human SW620 cells; format: functional, cell-based; conditions: Homo sapiens, SW-620
[20] = test system: LoVo; test: Antiproliferative activity in human LoVo cells incubated for 72 hrs by MTT assay; format: functional, cell-based
[21] = test system: HCT-116; test: Antiproliferative activity against human HCT-116 cells assessed as inhibition of cell growth; format: functional, cell-based
[22] = test system: SW-620; test: Antiproliferative activity against human SW620 cells assessed as inhibition of cell growth; format: functional, cell-based
[23] = test system: HT-29; test: Antiproliferative activity in human HT-29 cells incubated for 48 hrs by MTT assay; format: functional, cell-based; conditions: HT-29, 48 h
[24] = test system: HT-29; test: Cytotoxicity against human HT-29 cells measured after 24 hrs by MTT assay; format: functional, cell-based; conditions: HT-29, 24 h
[25] = test system: HCT-116; test: Cytotoxicity against human HCT-116 cells measured after 24 hrs by MTT assay; format: functional, cell-based; conditions: HCT-116, 24 h
[26] = test system: HCT-116; test: Antiproliferative activity against human HCT-116 cells incubated for 24 hrs by MTT assay; format: functional
[27] = test system: KM12; test: Cytotoxicity against human KM12 cells; format: functional, cell-based
[28] = test system: COLO 205; test: Cytotoxicity against human COLO 205 cells; format: functional, cell-based
[29] = test system: HT-29; test: Cytotoxicity against human HT-29 cells; format: functional, cell-based
[30] = test system: HT-29; test: Antiproliferative activity against human HT-29 cells incubated for 48 hrs by MTT assay; format: functional, cell-based; conditions: HT-29, 48 h
[31] = test system: HCT-116; test: Antiproliferative activity against human HCT-116 cells incubated for 48 hrs by MTT assay; format: functional, cell-based; conditions: HCT-116, 48 h
[32] = test system: HT-29; test: Induction of cell cycle arrest in human HT-29 cells measured after 24 to 48 hrs by PI staining based flow cytometry analysis; format: functional

SMILES: C[C@H]1[C@H](C)CC[C@]2(C(=O)O[C@@H]3O[C@H](CO[C@@H]4O[C@H](CO)[C@@H](O[C@@H]5O[C@@H](C)[C@H](O)[C@@H](O)[C@H]5O)[C@H](O)[C@H]4O)[C@@H](O)[C@H](O)[C@H]3O)CC[C@]3(C)C(=CC[C@@H]4[C@@]5(C)C[C@@H](O)[C@H](O)[C@@](C)(CO)[C@@H]5CC[C@]43C)[C@H]12
IC [1]: 2 µM
IC [2]: 2 µM
IC [3]: 2 µM

SMILES: NCCCNCCCCNCCCN1C(=O)c2ccc3c4c(ccc(c24)C1=O)C(=O)N(CCCNCCCCNCCCN)C3=O
IC [4]: 1 µM

IC50 [5]: 0.97 µM
SMILES: Cc1c(CO)c(CO)c2n1[C@H](c1ccccc1)SC2

IC50 ([6]; Homo sapiens, HCT-116): 24.5 µM
SMILES: COc1cc(C[C@@H](CO[C@@H]2O[C@H](CO)[C@@H](O)[C@H](O)[C@H]2O)[C@H](CO[C@@H]2O[C@H](CO)[C@@H](O)[C@H](O)[C@H]2O)Cc2ccc(O)c(OC)c2)ccc1O

IC50 [7]: 11.3 µM
IC50 [8]: 10.8 µM
SMILES: C[C@@H]1CC[C@]2(C(=O)O)CC[C@]3(C)C(=CC[C@@H]4[C@@]5(C)CC[C@H](O[C@@H]6OC[C@H](O)[C@H](O)[C@H]6O)C(C)(C)[C@@H]5CC[C@]43C)[C@@H]2[C@]1(C)O

SMILES: COc1cc2c(=O)oc3c(OC)c(O)cc4c(=O)oc(c1OC)c2c34
IC [9]: 15 µM

IC50 [10]: 8.15 µM
IC50 [11]: 10.5 µM
IC50 [12]: 15.3 µM
IC50 [13]: 9.58 µM
IC50 [14]: 10.8 µM
SMILES: CCc1ccc2c3[nH]c4ccccc4c3cc[n+]2c1

SMILES: O=C1C2C3C=CC(C4CC34)C2C(=O)N1c1ccc(Cc2ccncc2)cc1 (stereo not drawn)
IC [15]: 10 µM
IC [6]: 10 µM

SMILES: C/C=C1/CN(C)[C@H]2Cc3c([nH]c4ccccc34)[C@H](c3cc4[nH]c5c(c4cc3OC)CCN3C[C@@H]4C[C@H](CC)[C@H]3[C@@]5(C(=O)OC)C4)C[C@@H]1C2C(=O)OC (stereo partly drawn)
IC50 [16]: 1.38 µM
IC50 [17]: 4.1 µM

SMILES: C=CC(=O)Nc1ccccc1Nc1nc(Nc2ccc(CN3CCC(C(=O)NO)CC3)cc2)ncc1Cl
IC50 [18]: 0.134 µM
IC50 [19]: 0.309 µM

IC50 [20]: 1 µM
SMILES: O=C1/C(=C/c2ccccc2Br)CSC/C1=C\c1ccccc1Br

SMILES: COC(=O)[C@H](C)NC(=O)N[C@]1(C)CC[C@]2(C)CC[C@]3(C)C4=CC=C5C(=CC(=O)C(O)=C5C)[C@]4(C)CC[C@@]3(C)[C@@H]2C1
IC50 [21]: 0.28 µM
IC50 [22]: 0.28 µM

IC50 [23]: 23.4 µM
SMILES: C=CCCCOc1cc(O)c2c(c1)OC(c1ccc(O)cc1)CC2=O (stereo not drawn)

SMILES: C[C@@H]1CC[C@@]2(OC1)O[C@H]1C[C@H]3[C@]4(C)CC=C5C[C@@H](O[C@@H]6O[C@H](CO)[C@@H](O[C@@H]7O[C@@H](C)[C@H](O[C@@H]8O[C@@H](C)[C@H](O)[C@@H](O)[C@@H]8O)[C@@H](O)[C@H]7O)[C@H](O)[C@H]6O[C@@H]6O[C@@H](C)C(O)[C@@H](O)[C@H]6O)CC[C@]5(C)[C@H]4CC[C@]3(C)[C@H]1[C@@H]2C (stereo partly drawn)
IC50 [24]: 1.89 µM
IC50 [25]: 3.73 µM

SMILES: COc1ccccc1[C@@H](NS(=O)(=O)c1ccc2[nH]c(=O)ccc2c1)C(=O)N(Cc1ccco1)Cc1cccs1
IC [26]: 20 µM

SMILES: c1ccc(-c2ccc(-c3csc(N/N=C4\CCc5ccccc54)n3)cc2)cc1
IC50 [27]: 0.41 µM
IC50 [28]: 0.98 µM
IC50 [29]: 0.44 µM

IC50 [30]: 18.8 µM
IC50 [31]: 32 µM
SMILES: O=c1cc(-c2ccc(Oc3c(-c4ccc(O)cc4)oc4cc(O)cc(O)c4c3=O)cc2)oc2cc(O)cc(O)c12

IC50 [32]: 60 µM
SMILES: N#CC1=C(N)Oc2ccc3ccccc3c2C1c1ccc(F)cc1 (stereo not drawn)

— ChEMBL document CHEMBL5512605, “Targeted regulated cell death with small molecule compounds in colorectal cancer: Current perspectives of targeted therapy and molecular mechanisms” (Eur J Med Chem, 2024)
